From ChEMBL document CHEMBL3352750, “Novel indole based NNRTIs with improved potency against wild type and resistant HIV” (Bioorg Med Chem Lett, 2014)
pIC50: −log10 of the molar value. Activity calls are given as the source filed them. No cut-off for these calls is given here.

Tested on: Human immunodeficiency virus 1
Assay: Antiviral activity against HIV1
Type: functional, organism-based
Details: not given

Row | Compound | pIC50
1 | CCOC(=O)c1[nH]c2ccc(Cl)cc2c1C1(c2cccs2)CC1 | 7.19
2 | CCOC(=O)c1[nH]c2ccc(Cl)cc2c1C1(c2ccccc2)CC1 | 7.07
3 | Cc1ccnc2c1NC(=O)c1cccnc1N2C1CC1 [NEVIRAPINE] | 7.00

Tested on: Human immunodeficiency virus 1
Assay: Antiviral activity against HIV1 infected in HEK293T cells by p24 ELISA based phenotypic assay
Type: functional, organism-based
Details: Human immunodeficiency virus 1, HEK-293T

Row | Compound | pIC50
4 | COC(c1cc(C)cc(C)c1)c1c[nH]c2ccc(Cl)cc12 (centres undefined) | 6.52
5 | O=C(NCCO)c1[nH]c2ccc(Cl)cc2c1C1(c2ccccc2)CC1 | 6.68
6 | CCOC(=O)c1[nH]c2ccc(Cl)cc2c1C(OC)c1ccccc1 (centres undefined) | 7.70
7 | NNC(=O)c1[nH]c2ccc(Cl)cc2c1C1(c2ccccc2)CC1 | 5.36
8 | CCOC(=O)c1[nH]c2ccc(Cl)cc2c1C1(c2ccccc2)CC1 | 5.32
9 | COC(c1ccccc1)c1c(S(=O)(=O)C(F)(F)F)[nH]c2ccc(Cl)cc12 (centres undefined) | 5.92
10 | CCOC(=O)c1[nH]c2ccc(Cl)cc2c1C(OCC)c1ccccc1 (centres undefined) | 7.52
11 | CCOC(=O)c1[nH]c2ccc(Cl)cc2c1C(OC)c1cc(C)cc(C)c1 (centres undefined) | 7.52
12 | COC(c1ccccc1)c1c[nH]c2ccc(Cl)cc12 (centres undefined) | 5.61
13 | Cc1ccnc2c1NC(=O)c1cccnc1N2C1CC1 [NEVIRAPINE] | 6.92
14 | O=C(OCCO)c1[nH]c2ccc(Cl)cc2c1C1(c2ccccc2)CC1 | 6.15
15 | CCOC(=O)c1[nH]c2ccc(Cl)cc2c1C(O)c1ccccc1 (centres undefined) | 5.94

Tested on: Human immunodeficiency virus 1
Assay: Antiviral activity against HIV1 containing reverse transcriptase V106M mutant infected in HEK293T cells by p24 ELISA based phenotypic assay
Type: functional, organism-based
Details: HEK-293T

Row | Compound | inhibition
16 | CCOC(=O)c1[nH]c2ccc(Cl)cc2c1C(OC)c1ccccc1 (centres undefined) | inactive
17 | CCOC(=O)c1[nH]c2ccc(Cl)cc2c1C(OC)c1cc(C)cc(C)c1 (centres undefined) | Active

Tested on: Human immunodeficiency virus 1
Assay: Antiviral activity against HIV1 containing reverse transcriptase Y181C mutant infected in HEK293T cells by p24 ELISA based phenotypic assay
Type: functional, organism-based
Details: HEK-293T

Row | Compound | inhibition
18 | CCOC(=O)c1[nH]c2ccc(Cl)cc2c1C(OC)c1ccccc1 (centres undefined) | inactive
19 | CCOC(=O)c1[nH]c2ccc(Cl)cc2c1C(OC)c1cc(C)cc(C)c1 (centres undefined) | inactive

Tested on: Human immunodeficiency virus 1
Assay: Antiviral activity against HIV1 containing reverse transcriptase G190A mutant infected in HEK293T cells by p24 ELISA based phenotypic assay
Type: functional, organism-based
Details: HEK-293T

Row | Compound | inhibition
20 | CCOC(=O)c1[nH]c2ccc(Cl)cc2c1C(OC)c1ccccc1 (centres undefined) | Active
21 | CCOC(=O)c1[nH]c2ccc(Cl)cc2c1C(OC)c1cc(C)cc(C)c1 (centres undefined) | Active

Tested on: Human immunodeficiency virus 1
Assay: Antiviral activity against HIV1 containing reverse transcriptase K103N mutant infected in HEK293T cells by p24 ELISA based phenotypic assay
Type: functional, organism-based
Details: HEK-293T

Row | Compound | inhibition
22 | CCOC(=O)c1[nH]c2ccc(Cl)cc2c1C(OC)c1ccccc1 (centres undefined) | inactive
23 | CCOC(=O)c1[nH]c2ccc(Cl)cc2c1C(OC)c1cc(C)cc(C)c1 (centres undefined) | Active

Tested on: not listed separately
Assay: Cytotoxicity against HEK293T cells
Type: cell-based, HEK-293T
Details: human

Row | Compound | CC50 [nM]
24 | COC(c1cc(C)cc(C)c1)c1c[nH]c2ccc(Cl)cc12 (centres undefined) | 67700
25 | CCOC(=O)c1[nH]c2ccc(Cl)cc2c1C(OC)c1ccccc1 (centres undefined) | 25300
26 | COC(c1ccccc1)c1c(S(=O)(=O)C(F)(F)F)[nH]c2ccc(Cl)cc12 (centres undefined) | 24200
27 | CCOC(=O)c1[nH]c2ccc(Cl)cc2c1C(OCC)c1ccccc1 (centres undefined) | 22800
28 | CCOC(=O)c1[nH]c2ccc(Cl)cc2c1C(OC)c1cc(C)cc(C)c1 (centres undefined) | 36500
29 | COC(c1ccccc1)c1c[nH]c2ccc(Cl)cc12 (centres undefined) | 67000
30 | CCOC(=O)c1[nH]c2ccc(Cl)cc2c1C(O)c1ccccc1 (centres undefined) | 22700

Tested on: Human immunodeficiency virus 1
Assay: Antiviral activity against HIV1 containing reverse transcriptase K101P mutant infected in HEK293T cells by p24 ELISA based phenotypic assay
Type: functional, organism-based
Details: HEK-293T

Row | Compound | inhibition
31 | CCOC(=O)c1[nH]c2ccc(Cl)cc2c1C(OC)c1cc(C)cc(C)c1 (centres undefined) | Active

Tested on: Human immunodeficiency virus 1
Assay: Antiviral activity against HIV1 containing reverse transcriptase E138Q mutant infected in HEK293T cells by p24 ELISA based phenotypic assay
Type: functional, organism-based
Details: HEK-293T

Row | Compound | inhibition
32 | CCOC(=O)c1[nH]c2ccc(Cl)cc2c1C(OC)c1cc(C)cc(C)c1 (centres undefined) | Active

Tested on: Human immunodeficiency virus 1
Assay: Antiviral activity against HIV1 containing reverse transcriptase Y181I mutant infected in HEK293T cells by p24 ELISA based phenotypic assay
Type: functional, organism-based
Details: HEK-293T

Row | Compound | inhibition
33 | CCOC(=O)c1[nH]c2ccc(Cl)cc2c1C(OC)c1cc(C)cc(C)c1 (centres undefined) | Active

Tested on: Human immunodeficiency virus 1
Assay: Antiviral activity against HIV1 containing reverse transcriptase M230I mutant infected in HEK293T cells by p24 ELISA based phenotypic assay
Type: functional, organism-based
Details: HEK-293T

Row | Compound | inhibition
34 | CCOC(=O)c1[nH]c2ccc(Cl)cc2c1C(OC)c1cc(C)cc(C)c1 (centres undefined) | Active
